Experiment: Solubility experiment in cyclohexanone
Type: physicochemical
Settings: normal temperature/pressure, whether 0.1 wt % or more was dissolved
Description: In order to confirm the solubility in the solvent used in the solution process of the compounds prepared in the Preparation Examples and the comparative compounds, each of them was dissolved in the solvent cyclohexanone (CHON) under normal temperature/pressure conditions, and it was confirmed whether 0.1 wt % or more was dissolved.

Solubility, Solvent CHON	Compound
X (0.1 wt. % or more insoluble)	CC1(C)c2cc(-c3cc4ccccc4o3)ccc2-c2ccc(N(c3ccccc3)c3ccc4c5c6ccc7c(c6ccc5n(-c5ccccc5)c4c3)c3ccc(N(c4ccccc4)c4ccc5c(c4)C(C)(C)c4cc(-c6cc8ccccc8o6)ccc4-5)cc3n7-c3ccccc3)cc21 [Comparative Compound I, reference compound]
◯ (0.1 wt. % or more soluble)	Cc1cccc(N(c2ccc3c(ccc4c5c(ccc6c7ccc8cc(N(c9cccc(C)c9)c9cccc%10c9oc9ccccc9%10)ccc8c7n(-c7ccccc7)c65)n(-c5ccccc5)c34)c2)c2cccc3c2oc2ccccc23)c1 [Compound 1]
◯ (0.1 wt. % or more soluble)	Cc1cccc(N(c2ccc3c(ccc4c5cc6c7ccc8cc(N(c9cccc(C)c9)c9cccc%10c9oc9ccccc9%10)ccc8c7n(-c7ccccc7)c6cc5n(-c5ccccc5)c34)c2)c2cccc3c2oc2ccccc23)c1 [Compound 2]
◯ (0.1 wt. % or more soluble)	Cc1cccc(N(c2ccc3c(ccc4c5cc6c(cc5n(-c5ccccc5)c34)c3ccc4cc(N(c5cccc(C)c5)c5cccc7c5oc5ccccc57)ccc4c3n6-c3ccccc3)c2)c2cccc3c2oc2ccccc23)c1 [Compound 3]
◯ (0.1 wt. % or more soluble)	Cc1cccc(N(c2ccc3c(ccc4c5c6c7ccc8cc(N(c9cccc(C)c9)c9cccc%10c9oc9ccccc9%10)ccc8c7n(-c7ccccc7)c6ccc5n(-c5ccccc5)c34)c2)c2cccc3c2oc2ccccc23)c1 [Compound 4]
◯ (0.1 wt. % or more soluble)	Cc1cccc(N(c2ccc3c(ccc4c5ccc6c7ccc8cc(N(c9cccc(C)c9)c9cccc%10c9oc9ccccc9%10)ccc8c7n(-c7ccccc7)c6c5n(-c5ccccc5)c34)c2)c2cccc3c2oc2ccccc23)c1 [Compound 5]
◯ (0.1 wt. % or more soluble)	c1ccc(-n2c3ccccc3c3cc(-c4ccc(N(c5ccc6ccccc6c5)c5ccc6c(ccc7c8c(ccc9c%10ccc%11cc(N(c%12ccc(-c%13ccc%14c(c%13)c%13ccccc%13n%14-c%13ccccc%13)cc%12)c%12ccc%13ccccc%13c%12)ccc%11c%10n(-c%10ccccc%10)c98)n(-c8ccccc8)c67)c5)cc4)ccc32)cc1 [Compound 6]
◯ (0.1 wt. % or more soluble)	c1ccc(-n2c3ccccc3c3cc(-c4ccc(N(c5ccc6ccccc6c5)c5ccc6c(ccc7c8cc9c%10ccc%11cc(N(c%12ccc(-c%13ccc%14c(c%13)c%13ccccc%13n%14-c%13ccccc%13)cc%12)c%12ccc%13ccccc%13c%12)ccc%11c%10n(-c%10ccccc%10)c9cc8n(-c8ccccc8)c67)c5)cc4)ccc32)cc1 [Compound 7]
◯ (0.1 wt. % or more soluble)	c1ccc(-n2c3ccccc3c3cc(-c4ccc(N(c5ccc6ccccc6c5)c5ccc6c(ccc7c8cc9c(cc8n(-c8ccccc8)c67)c6ccc7cc(N(c8ccc(-c%10ccc%11c(c%10)c%10ccccc%10n%11-c%10ccccc%10)cc8)c8ccc%10ccccc%10c8)ccc7c6n9-c6ccccc6)c5)cc4)ccc32)cc1 [Compound 8]
◯ (0.1 wt. % or more soluble)	c1ccc(-n2c3ccccc3c3cc(-c4ccc(N(c5ccc6ccccc6c5)c5ccc6c(ccc7c8c9c%10ccc%11cc(N(c%12ccc(-c%13ccc%14c(c%13)c%13ccccc%13n%14-c%13ccccc%13)cc%12)c%12ccc%13ccccc%13c%12)ccc%11c%10n(-c%10ccccc%10)c9ccc8n(-c8ccccc8)c67)c5)cc4)ccc32)cc1 [Compound 9]
◯ (0.1 wt. % or more soluble)	c1ccc(-n2c3ccccc3c3cc(-c4ccc(N(c5ccc6ccccc6c5)c5ccc6c(ccc7c8ccc9c%10ccc%11cc(N(c%12ccc(-c%13ccc%14c(c%13)c%13ccccc%13n%14-c%13ccccc%13)cc%12)c%12ccc%13ccccc%13c%12)ccc%11c%10n(-c%10ccccc%10)c9c8n(-c8ccccc8)c67)c5)cc4)ccc32)cc1 [Compound 10]
◯ (0.1 wt. % or more soluble)	c1ccc(N(c2ccc3cc(-c4cc5ccccc5o4)ccc3c2)c2ccc3c(ccc4c5c(ccc6c7ccc8cc(N(c9ccccc9)c9ccc%10cc(-c%11cc%12ccccc%12o%11)ccc%10c9)ccc8c7n(-c7ccccc7)c65)n(-c5ccccc5)c34)c2)cc1 [Compound 11]
◯ (0.1 wt. % or more soluble)	c1ccc(N(c2ccc3cc(-c4cc5ccccc5o4)ccc3c2)c2ccc3c(ccc4c5cc6c7ccc8cc(N(c9ccccc9)c9ccc%10cc(-c%11cc%12ccccc%12o%11)ccc%10c9)ccc8c7n(-c7ccccc7)c6cc5n(-c5ccccc5)c34)c2)cc1 [Compound 12]
◯ (0.1 wt. % or more soluble)	c1ccc(N(c2ccc3cc(-c4cc5ccccc5o4)ccc3c2)c2ccc3c(ccc4c5cc6c(cc5n(-c5ccccc5)c34)c3ccc4cc(N(c5ccccc5)c5ccc7cc(-c8cc9ccccc9o8)ccc7c5)ccc4c3n6-c3ccccc3)c2)cc1 [Compound 13]
◯ (0.1 wt. % or more soluble)	c1ccc(N(c2ccc3cc(-c4cc5ccccc5o4)ccc3c2)c2ccc3c(ccc4c5c6c7ccc8cc(N(c9ccccc9)c9ccc%10cc(-c%11cc%12ccccc%12o%11)ccc%10c9)ccc8c7n(-c7ccccc7)c6ccc5n(-c5ccccc5)c34)c2)cc1 [Compound 14]
◯ (0.1 wt. % or more soluble)	c1ccc(N(c2ccc3cc(-c4cc5ccccc5o4)ccc3c2)c2ccc3c(ccc4c5ccc6c7ccc8cc(N(c9ccccc9)c9ccc%10cc(-c%11cc%12ccccc%12o%11)ccc%10c9)ccc8c7n(-c7ccccc7)c6c5n(-c5ccccc5)c34)c2)cc1 [Compound 15]
◯ (0.1 wt. % or more soluble)	CC1(C)c2ccccc2-c2ccc(-n3c4cc5c6ccc7cc(N(c8ccccc8)c8ccc9cc(-c%10cc%11ccccc%11o%10)ccc9c8)ccc7c6n(-c6ccc7c(c6)C(C)(C)c6ccccc6-7)c5cc4c4ccc5cc(N(c6ccccc6)c6ccc7cc(-c8cc9ccccc9o8)ccc7c6)ccc5c43)cc21 [Compound 16]
◯ (0.1 wt. % or more soluble)	[2H]c1c([2H])c([2H])c(-n2c3cc4c5ccc6cc(N(c7ccccc7)c7ccc8cc(-c9cc%10ccccc%10o9)ccc8c7)ccc6c5n(-c5c([2H])c([2H])c([2H])c([2H])c5[2H])c4cc3c3ccc4cc(N(c5ccccc5)c5ccc6cc(-c7cc8ccccc8o7)ccc6c5)ccc4c32)c([2H])c1[2H] [Compound 17]
◯ (0.1 wt. % or more soluble)	CC(C)(C)c1ccc(N(c2ccc3cc(-c4cc5ccccc5o4)ccc3c2)c2ccc3c(ccc4c5cc6c(cc5n(-c5ccc(C(C)(C)C)cc5)c34)c3ccc4cc(N(c5ccc(C(C)(C)C)cc5)c5ccc7cc(-c8cc9ccccc9o8)ccc7c5)ccc4c3n6-c3ccc(C(C)(C)C)cc3)c2)cc1 [Compound 18]

Source: patent US12538701B2, “Compound and organic light emitting device comprising the same” (LG Chem, Ltd., priority 2020, dated 2026)
